Assay results: ChEMBL document CHEMBL2363022, “Malaria Box Schistosomiasis Screening Data” (2013)

Legend:
Assay type in all cases: functional
Parameters in all cases: scale not given here
Schistosoma mansoni [1] = test system: Schistosoma mansoni
Schistosoma mansoni [2] = test system: Schistosoma mansoni; remark: listed apart in the source
Schistosoma mansoni [3] = test system: Schistosoma mansoni; remark: listed apart in the source

Structure (SMILES) | Toxicity (Schistosoma mansoni [1]) | Toxicity (Schistosoma mansoni [2]) | Toxicity (Schistosoma mansoni [3])
N#Cc1nc(Cc2cccc3ccccc23)oc1N1CCN(C(c2ccccc2)c2ccccc2)CC1 | 0 | 0 | 0
O=C(Nc1cccc(-c2nc3ccccc3[nH]2)c1)c1cccc(NC(=O)c2ccco2)c1 | 0 | 0 | 1
COc1ccc(NC(=O)C2c3ccccc3C(=O)N(CC(C)C)C2c2cccs2)cc1Cl (configuration not stated) | 0 | 0 | 0
COc1cccc(NC(=O)[C@H](C(C)C)n2c(=O)[nH]c3ccccc3c2=O)c1 | 0 | 0 | 0
OC(CNC1CCCCC1)Cn1c2ccccc2c2ccccc21 (configuration not stated) | 0 | 0 | 0
Cc1ccc(C(=O)c2oc3ccc4c(C)cc(=O)oc4c3c2C)cc1 | 0 | 0 | 0
O=C(Nc1cccc(C2=NCCN2)c1)Nc1cccc(C2=NCCN2)c1 [IMIDOCARB] | 0 | 0 | 0
CC(C)(C)c1ccc(C(=O)Nc2c3c(nn2-c2cccc(Cl)c2)CSC3)cc1 | 0 | 0 | 0
Cc1cc(N2CCN(C3CCCC3)CC2)n2c(nc3ccccc32)c1C#N | 0 | 0 | 0
CCOC(=O)c1cnc2ccc(CC)cc2c1O | 0 | 0 | 0
Cc1cc(C)c2c(c1)OCN(Cc1ccccc1Cl)C2 | 0 | 0 | 2
COc1ccccc1N1CCN(C(CNS(=O)(=O)c2ccc(Cl)cc2)c2cccnc2)CC1 (configuration not stated) | 0 | 0 | 0
CC(C)(C)c1ccc2c(c1)CN(Cc1ccc(Cl)cc1)CO2 | 0 | 0 | 0
Nc1ccn([C@@H]2O[C@H](CO)[C@@H](O)[C@H]2O)c(=O)n1 [CYTIDINE] | 0 | 0 | 0
COc1ccc(C(=O)C2CC2c2ccc(Cl)cc2)cc1 (configuration not stated) | 0 | 0 | 0
Oc1c(C(Nc2ccccn2)c2cccc(Oc3ccccc3)c2)ccc2cccnc12 (configuration not stated) | 0 | 4 | 4
Br.CCn1c2c(c(=N)c3c1CCC3)CCCC2 | 0 | 0 | 0
Nc1nc(Nc2cccc(F)c2)nc2ccccc12 | 0 | 0 | 0
Cc1c(C)n(CC(O)CNC2CCCCC2C)c2ccccc12 (configuration not stated) | 0 | 0 | 0
Cc1ccc(Nc2nc(-c3ccccn3)cs2)cc1 | 0 | 0 | 0
COc1ccc(-c2cc3c(nn2)-c2ccccc2C3=O)cc1 | 0 | 0 | 0
COCCNC(=O)c1ccc(OC2CCN(Cc3ccc(F)c(F)c3)CC2)c(Cl)c1 | 0 | 0 | 0
CCCc1c(C)nc2ccc(Br)cc2c1O | 0 | 0 | 0

Structure (SMILES) | Toxicity (Schistosoma mansoni [1]) | Toxicity (Schistosoma mansoni [2]) | Toxicity (Schistosoma mansoni [3])
CCOC(=O)c1cnc2ccc(OC)cc2c1Nc1ccc(N2CCN(C)CC2)cc1 | 0 | 4 | 4
CCN(CC)CCNc1ncnc2c1[nH]c1ccc(Cl)cc12 | 0 | 0 | 0
COc1ccc(-c2cc3c(SCC(=O)Nc4cc(C(F)(F)F)ccc4Cl)nccn3n2)cc1 | 0 | 0 | 0
O=C(Nc1ccc(Cl)cc1)N1CCN(c2ccc3nncn3n2)CC1 | 0 | 0 | 0
OC(Cn1nnc2ccccc21)Cn1c2ccc(Br)cc2c2cc(Br)ccc21 (configuration not stated) | 0 | 0 | 0
Cc1ccc(Nc2nc(NCCO)c3ccccc3n2)cc1C | 1 | 0 | 1
O=C(Nc1ccc(C23CC4CC(CC(c5ccccc5)(C4)C2)C3)cc1)c1cccs1 | 2 | 2 | 2
Cc1cccc(N2C(=O)C3C(C2=O)C2(c4ccccc4)C(=O)C3(c3ccccc3)C(c3ccc4c(c3)OCO4)=C2c2ccc3c(c2)OCO3)c1 (configuration not stated) | 0 | 0 | 0
Cc1cc(Nc2cccc(F)c2)nc(NCc2ccccc2)n1 | 2 | 0 | 0
Cc1[nH]c(-c2ccc(F)cc2)cc1C(=O)NC1CCN(Cc2ccccc2)CC1 | 0 | 0 | 3
COc1ccc(C(=O)Nc2ccc3nc(N4CCCCC4)cc(C)c3c2)cc1OC | 0 | 0 | 0
Oc1ccc(C(=C(Cl)Cl)c2ccc(O)cc2)cc1 | 0 | 0 | 0
CCCC(c1nnnn1C1CCCCC1)N1CCN(C(=O)c2ccco2)CC1.Cl (configuration not stated) | 0 | 0 | 0
Cc1ccc(-c2nc3ccccc3o2)cc1NCc1cc(Cc2ccccc2)ccc1O | 0 | 0 | 0
CC1CCN(Cc2c(O)ccc3cc(-c4nc5ccccc5s4)c(=O)oc23)CC1 | 0 | 0 | 0
OC(CNC1CCCCC1)Cn1c2ccc(I)cc2c2cc(I)ccc21 (configuration not stated) | 4 | 4 | 4
CC1=C(CC(=O)c2cccc([N+](=O)[O-])c2)C(=O)c2ccccc2C1=O | 0 | 2 | 2
c1ccc(/C2=N/c3ccccc3/N=C(/c3ccccc3)c3ccccc32)cc1 | 1 | 1 | 1
O=C(c1ccccc1F)N(Cc1ccc(Cl)cc1)c1ccccn1 | 0 | 0 | 0
COc1cccc(Cn2c(Oc3ccccc3)nc3c2c(=O)n(C)c(=O)n3C)c1 | 0 | 0 | 0
CC(C)(C)c1ccc(O)c(CNC2CCCCC2)c1 | 0 | 0 | 0
CCOC(=O)c1cnc2ccc(Cl)cc2c1NCCCN(C)C | 1 | 1 | 1
CCOc1ccc(Nc2c3ccccc3nc3ccccc23)cc1.Cl | 2 | 3 | 4

Structure (SMILES) | Toxicity (Schistosoma mansoni [1]) | Toxicity (Schistosoma mansoni [2]) | Toxicity (Schistosoma mansoni [3])
O=C(CCl)NCCOc1ccc(Cl)cc1Cl | 0 | 3 | 4
CCOc1ccc(CCNC(=O)c2cccs2)cc1OCC | 0 | 0 | 0
Cc1ccc(-c2cc3c(nn2)-c2ccccc2C3=O)cc1 | 0 | 0 | 0
O=C(O)C(=O)O.Oc1ccccc1CN1CCN(C(c2ccccc2)c2ccccc2)CC1 | 0 | 0 | 0
COc1ccccc1CNC(=O)C1c2ccccc2C(=O)N(CC(C)C)C1c1cccs1 (configuration not stated) | 0 | 0 | 0
COc1cc(OC)cc(N2C(=O)N(Cc3ccc(C(C)(C)C)cc3)c3ccccc3S2(=O)=O)c1 | 0 | 0 | 0
COc1ccc2c(c1OC)C(=O)N1c3ccccc3N=C(c3ccc(C)cc3)CC21 (configuration not stated) | 0 | 0 | 0
CCc1c(C)c(=N)c2ccccc2n1C.I | 0 | 0 | 0
COc1ccc(N2CCN(C(CNC(=O)C3CCCCC3)c3ccc4c(c3)OCO4)CC2)cc1 (configuration not stated) | 0 | 0 | 0
CC(C)CCNCC(O)Cn1c2ccccc2c2ccccc21.Cl (configuration not stated) | 2 | 4 | 4
CC(=O)NCCc1nc2ccccc2n1Cc1ccc(C(C)C)cc1 | 0 | 0 | 0
CCOc1cccc(C(=O)Nc2ccc(-c3nc4ccccc4[nH]3)cc2)c1 | 0 | 0 | 2
COc1cc2c3cc1Oc1c(OC)c(OC)cc4c1C(Cc1ccc(O)c(c1)Oc1ccc(cc1)CC3N(C)CC2)N(C)CC4.Cl (configuration not stated) | 2 | 3 | 4
COc1ccc(Br)cc1C1Nc2ccc3ccccc3c2C2=C1C(=O)CC(c1ccccc1)C2 (configuration not stated) | 0 | 0 | 0
Cc1ccc(-c2cc3c(SCC(=O)Nc4cc(C(F)(F)F)ccc4Cl)nccn3n2)cc1 | 0 | 0 | 0
CCOc1cc2c(cc1OCC)C(c1cc(Cl)c(O)c(OCC)c1)NCC2 (configuration not stated) | 0 | 0 | 0
CC(=O)Nc1nnc(SCc2c(C)cc(C(C)(C)C)cc2C)s1 | 0 | 0 | 0
CCCCNc1nc(NC(C)(C)C)nc(NC(C)(C)C)n1 | 0 | 4 | 4
COc1cccc(C=Cc2nc(=O)c3ccccc3o2)c1OC | 0 | 0 | 0
CCOc1ccc(CN2CCN(CC(O)COc3ccc(OCC(O)CN4CCN(Cc5ccc(OCC)cc5)CC4)cc3)CC2)cc1 (configuration not stated) | 3 | 4 | 4
CCC(C)NCC(O)(c1ccc(Cl)cc1)c1ccc(Cl)cc1 (configuration not stated) | 1 | 0 | 0
CCC(=O)Nc1nnc(Cc2ccc(OC)c(OC)c2)s1 | 0 | 0 | 0
Cl.Oc1ccccc1CNCC12CC3CC(CC(C3)C1)C2 | 0 | 0 | 0
